Test results taken from patent publication US12534457B2, “Heteroaryl derivative compounds, and uses thereof” (Voronoi Inc., priority 2021, dated 2026).

Experiments:
Format in all cases: cell-based
[1] = system: Ba/F3 cells expressing EGFR Del19/C797S (EGFR DC); test: Proliferation inhibitory activity, Ba/F3 cells expressing EGFR Del19/C797S (CellTiter-Glo); details: Mus musculus, BaF3, 72 hours of compound treatment
Outline: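 Viability after 72 h of compound exposure was measured by luminescence (CellTiter-Glo) in Ba/F3 lines transduced with mutant EGFR. Final concentrations spanned 0.2 nM–5 μM over 12 threefold steps. Growth relative to untreated control gave GI50 values; each test was run three times.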

[2] = system: Ba/F3 cells expressing EGFR L858R/C797S (EGFR LC); test: Proliferation inhibitory activity, Ba/F3 cells expressing EGFR L858R/C797S (CellTiter-Glo); details: Mus musculus, BaF3, 72 hours of compound treatment
Experimental: (§1) The following experiments were performed to evaluate the inhibitory activity of the compounds according to the present disclosure on Ba/F3 proliferation expressing EGFR C797S, L861Q, G719A, S768I, L718Q, and/or G724S mutations.
(§2) For Ba/F3 cells, RPMI-1640 containing 10% FBS and 5 ng/ml IL-3 (R&D Systems) was used. Transduced Ba/F3 cells were cultured after adding 1 μg/ml puromycin (Invitrogen) to the same medium.
(§3) At 24 hours before treatment with the compounds, 3000 to 5000 cells were aliquoted into each well of a white clear bottom 96 well plate (Corning). The compounds were diluted in dimethyl sulfoxide (3 times dilution, 12 concentrations in total), and injected in an amount of 1 μl so that the final concentration was 0.2 nM to 5 uM. For measurement of living cells, after 72 hours of compound treatment, the cells were stored at room temperature for 10 min using CellTiter-Glo luminescentcell-viability reagent (Promega), and then luminescence intensity was measured using a reader (SynergyNeo, Biotek). Each test was repeated three times. Result values were calculated as the cell growth rate (%) compared to the control. The graphs were created using GraphPad Prism version 8.3.0 program and the GI50 values were calculated.

[3] = system: Ba/F3 G719A (EGFR mutation); test: Proliferation inhibitory activity, Ba/F3 cells expressing EGFR G719A; details: Mus musculus, BaF3, 72 hours, CellTiter-Glo
Experimental: as §1, §2, §3

[4] = system: Ba/F3 S768I (EGFR mutation); test: Proliferation inhibitory activity, Ba/F3 cells expressing EGFR S768I; details: Mus musculus, BaF3, 72 hours, CellTiter-Glo
Experimental: as §1, §2, §3

[5] = system: Ba/F3 L861Q (EGFR mutation); test: Proliferation inhibitory activity, Ba/F3 cells expressing EGFR L861Q; details: Mus musculus, BaF3, 72 hours, CellTiter-Glo
Experimental: as §1, §2, §3

Compound | GI50 [1] [nM] | GI50 [2] [nM] | GI50 [3] [nM] | GI50 [4] [nM] | GI50 [5] [nM]
CN1CCN(c2ccc(Nc3cc(N4OCC[C@@H]4c4ccccc4)ncn3)cc2)CC1 [Example 1, (R)—N-(4-(4-methylpiperazin-1-yl)phenyl)-6-(3-phenylisoxazolidin-2-yl)pyrimidin-4-amine] | < 50 | < 50 | – | – | –
COc1cc(Nc2cc(N3OCC[C@@H]3c3ccccc3)ncn2)ccc1N1CCC(N2CCN(C)CC2)CC1 [Example 4, (R)—N-(3-methoxy-4-(4-(4-methylpiperazin-1-yl)piperidin-1-yl)phenyl)-6-(3-phenylisoxazolidin-2-yl)pyrimidin-4-amine] | < 50 | < 50 | < 50 | 50 to 500 | < 50
COc1cc(N2CCC(N3CCN(C)CC3)CC2)ccc1Nc1cc(N2OCC[C@@H]2c2ccccc2)ncn1 [Example 5, (R)—N-(2-methoxy-4-(4-(4-methylpiperazin-1-yl)piperidin-1-yl)phenyl)-6-(3-phenylisoxazolidin-2-yl)pyrimidin-4-amine] | < 50 | < 50 | – | – | –
COc1cc(N2CCC(N3CCN(C4CC4)CC3)CC2)ccc1Nc1cc(N2OCC[C@@H]2c2cc(F)cc(F)c2)ncn1 [Example 6, (R)—N-(4-(4-(4-cyclopropylpiperazin-1-yl)piperidin-1-yl)-2-methoxyphenyl)-6-(3-(3,5-difluorophenyl)isoxazolidin-2-yl)pyrimidin-4-amine] | 50 to 500 | 50 to 500 | – | – | –
COc1cc(N2CCOCC2)c(-c2cnn(C)c2)cc1Nc1cc(N2OCC[C@@H]2c2cc(F)cc(F)c2)ncn1 [Example 7, (R)-6-(3-(3,5-difluorophenyl)isoxazolidin-2-yl)-N-(2-methoxy-5-(1-methyl-1H-pyrazol-4-yl)-4-morpholinophenyl)pyrimidin-4-amine] | 50 to 500 | 50 to 500 | – | – | –
COc1cc(N2CCC(N3CCN(C)CC3)CC2)c(-c2cnn(C)c2)cc1Nc1cc(N2OCC[C@@H]2c2cc(F)cc(F)c2)ncn1 [Example 8, (R)-6-(3-(3,5-difluorophenyl)isoxazolidin-2-yl)-N-(2-methoxy-5-(1-methyl-1H-pyrazol-4-yl)-4-(4-(4-methylpiperazin-1-yl)piperidin-1-yl)phenyl)pyrimidin-4-amine] | < 50 | < 50 | – | – | –
COc1cc(N2CCC(N3CCC(N(C)C)CC3)CC2)c(-c2cnn(C)c2)cc1Nc1cc(N2OCC[C@@H]2c2cc(F)cc(F)c2)ncn1 [Example 10, (R)-1′-(4-((6-(3-(3,5-difluorophenyl)isoxazolidin-2-yl)pyrimidin-4-yl)amino)-5-methoxy-2-(1-methyl-1H-pyrazol-4-yl)phenyl)-N,N-dimethyl-[1,4′-bipiperidin]-4-amine] | 50 to 500 | 50 to 500 | – | – | –
CN1CCN(C2CCN(c3cc(Nc4cc(N5OCC[C@@H]5c5cc(F)cc(F)c5)ncn4)cc(S(C)(=O)=O)c3)CC2)CC1 [Example 11, (R)-6-(3-(3,5-difluorophenyl)isoxazolidin-2-yl)-N-(3-(4-(4-methylpiperazin-1-yl)piperidin-1-yl)-5-(methylsulfonyl)phenyl)pyrimidin-4-amine] | 50 to 500 | 50 to 500 | – | – | –
CS(=O)(=O)c1cc(Nc2cc(N3OCC[C@@H]3c3cc(F)cc(F)c3)ncn2)cc(N2CCC(N3CCOCC3)CC2)c1 [Example 12, (R)-6-(3-(3,5-difluorophenyl)isoxazolidin-2-yl)-N-(3-(methylsulfonyl)-5-(4-morpholinopiperidin-1-yl)phenyl)pyrimidin-4-amine] | 50 to 500 | 50 to 500 | – | – | –
CN1CCN(c2cc(Nc3cc(N4OCC[C@@H]4c4cc(F)cc(F)c4)ncn3)cc(S(C)(=O)=O)c2)CC1 [Example 13, (R)-6-(3-(3,5-difluorophenyl)isoxazolidin-2-yl)-N-(3-(4-methylpiperazin-1-yl)-5-(methylsulfonyl)phenyl)pyrimidin-4-amine] | 50 to 500 | 50 to 500 | – | – | –
CN1CCN(c2cc(Nc3cc(N4OCC[C@@H]4c4cc(F)cc(F)c4)ncn3)cc(C(C)(C)C#N)c2)CC1 [Example 15, (R)-2-(3-((6-(3-(3,5-difluorophenyl)isoxazolidin-2-yl)pyrimidin-4-yl)amino)-5-(4-methylpiperazin-1-yl)phenyl)-2-methylpropanenitrile] | < 50 | < 50 | – | – | –
CN(C)C1CCN(C2CCN(c3ccc(Nc4cc(N5OCC[C@@H]5c5ccccc5)ncn4)cc3)CC2)CC1 [Example 84, (R)—N,N-dimethyl-1′-(4-((6-(3-phenylisoxazolidin-2-yl)pyrimidin-4-yl)amino)phenyl)-[1,4′-bipiperidin]-4-amine] | < 50 | < 50 | – | – | –
COc1cc(Nc2cc(N3OCC[C@@H]3c3ccccc3)ncn2)ccc1N1CCN(C2CCN(C)CC2)CC1 [Example 102, (R)—N-(3-methoxy-4-(4-(1-methylpiperidin-4-yl)piperazin-1-yl)phenyl)-6-(3-phenylisoxazolidin-2-yl)pyrimidin-4-amine] | < 50 | < 50 | – | – | –
Cc1cc(Nc2cc(N3OCC[C@@H]3c3ccc(F)cc3F)ncn2)ccc1N1CCC(N2CCN(C)CC2)CC1 [Example 104, (R)-6-(3-(2,4-difluorophenyl)isoxazolidin-2-yl)-N-(3-methyl-4-(4-(4-methylpiperazin-1-yl)piperidin-1-yl)phenyl)pyrimidin-4-amine] | < 50 | < 50 | – | – | –
COc1cc(Nc2cc(N3OCC[C@@H]3c3cccc(F)c3F)ncn2)ccc1N1CCC(N2CCN(C)CC2)CC1 [Example 128, (R)-6-(3-(2,3-difluorophenyl)isoxazolidin-2-yl)-N-(3-methoxy-4-(4-(4-methylpiperazin-1-yl)piperidin-1-yl)phenyl)pyrimidin-4-amine] | < 50 | < 50 | – | – | –
COc1cc(N2CCC(N3CCN(C)CC3)CC2)ccc1Nc1cc(N2OCC[C@@H]2c2ccc(Cl)c(F)c2)ncn1 [Example 129, (R)-6-(3-(4-chloro-3-fluorophenyl)isoxazolidin-2-yl)-N-(2-methoxy-4-(4-(4-methylpiperazin-1-yl)piperidin-1-yl)phenyl)pyrimidin-4-amine] | < 50 | < 50 | – | – | –
COc1cc(N2CCC(N3CCN(C)CC3)CC2)c(Cl)cc1Nc1cc(N2OCC[C@@H]2c2ccccc2)ncn1 [Example 132, (R)—N-(5-chloro-2-methoxy-4-(4-(4-methylpiperazin-1-yl)piperidin-1-yl)phenyl)-6-(3-phenylisoxazolidin-2-yl)pyrimidin-4-amine] | < 50 | < 50 | – | – | –
CN(C)C1CCN(c2ccc(Nc3cc(N4OCC[C@@H]4c4ccccc4)ncn3)nc2)CC1 [Example Compound 138, (R)-N-(5-(4-(dimethylamino)piperidin-1-yl)pyridin-2-yl)-6-(3-phenylisoxazolidin-2-yl)pyrimidin-4-amine] | < 50 | – | – | – | –
